Among the data in ChEMBL document CHEMBL3797031, “Structure-activity relationship study of 4-substituted piperidines at Leu26 moiety of novel p53-hDM2 inhibitors” (Bioorg Med Chem Lett, 2016) are IC50 and Kd values, retold here.

What is called IC50 is the midpoint of a concentration-inhibition curve. By Kd is commonly meant the free concentration of one partner at which half of the binding sites on the other are occupied at equilibrium, for simple one-to-one binding. Read a high Kd as weaker binding.

Assay [1] addresses T1, E3 ubiquitin-protein ligase Mdm2 (Homo sapiens, UniProt Q00987). The assay can be described thus: Binding affinity to human MDM2 assessed as inhibition of interaction with p53 by fluorescence polarization assay. (In fluorescence polarisation assays a small probe gives low polarisation when free and higher when bound to something large.)
For the next assay, the system named is SK-UT-1. As to the kind of experiment: Antiproliferative activity against human SK-UT-1 cells expressing mutant p53. In kind it is functional, cell-based.
For a further assay, the target named is Cytochrome P450 3A4 (Homo sapiens, UniProt P08684). As to the kind of experiment: Inhibition of CYP3A4 (unknown origin). In kind it is ADME.
A short description of assay [2]: Antiproliferative activity against human HCT116 cells expressing wild type p53. The following applies: HCT-116. In kind it is functional, cell-based.
Assay [3] is described as follows: Antiproliferative activity against human SJSA1 cells expressing wild type p53. In kind it is functional, cell-based. The note with it: SJSA-1.
The next assay addresses Cytochrome P450 2D6 (Homo sapiens, UniProt P10635). As to the kind of experiment: Inhibition of CYP2D6 (unknown origin). In kind it is ADME.
A further assay has as its target Cytochrome P450 2C9 (Homo sapiens, UniProt P11712). As to the kind of experiment: Inhibition of CYP2C9 (unknown origin). In kind it is ADME.
Assay [4] is described as follows: Antiproliferative activity against p53 null human HCT116 cells. The assay is classed as functional, cell-based. The note with it: HCT-116.
Assay [5] concerns the target T1, E3 ubiquitin-protein ligase Mdm2. As to the kind of experiment: Binding affinity to human MDM2 by temperature dependent fluorescence assay.

T1 sequence (Q00987 whole entry): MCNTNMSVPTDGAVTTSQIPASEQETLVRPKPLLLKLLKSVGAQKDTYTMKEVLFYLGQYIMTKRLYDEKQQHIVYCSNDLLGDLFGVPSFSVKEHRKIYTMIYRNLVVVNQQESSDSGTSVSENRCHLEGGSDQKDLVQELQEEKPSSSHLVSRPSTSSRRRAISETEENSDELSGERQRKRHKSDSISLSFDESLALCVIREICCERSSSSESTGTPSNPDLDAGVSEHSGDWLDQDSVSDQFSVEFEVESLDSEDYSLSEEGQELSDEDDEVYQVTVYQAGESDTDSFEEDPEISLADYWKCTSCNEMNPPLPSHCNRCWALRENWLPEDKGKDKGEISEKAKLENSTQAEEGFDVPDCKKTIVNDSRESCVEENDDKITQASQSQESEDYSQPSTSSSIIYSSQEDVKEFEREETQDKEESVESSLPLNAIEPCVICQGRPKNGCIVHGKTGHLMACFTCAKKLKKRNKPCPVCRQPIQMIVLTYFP
Sequence of Cytochrome P450 2C9 (P11712 whole entry): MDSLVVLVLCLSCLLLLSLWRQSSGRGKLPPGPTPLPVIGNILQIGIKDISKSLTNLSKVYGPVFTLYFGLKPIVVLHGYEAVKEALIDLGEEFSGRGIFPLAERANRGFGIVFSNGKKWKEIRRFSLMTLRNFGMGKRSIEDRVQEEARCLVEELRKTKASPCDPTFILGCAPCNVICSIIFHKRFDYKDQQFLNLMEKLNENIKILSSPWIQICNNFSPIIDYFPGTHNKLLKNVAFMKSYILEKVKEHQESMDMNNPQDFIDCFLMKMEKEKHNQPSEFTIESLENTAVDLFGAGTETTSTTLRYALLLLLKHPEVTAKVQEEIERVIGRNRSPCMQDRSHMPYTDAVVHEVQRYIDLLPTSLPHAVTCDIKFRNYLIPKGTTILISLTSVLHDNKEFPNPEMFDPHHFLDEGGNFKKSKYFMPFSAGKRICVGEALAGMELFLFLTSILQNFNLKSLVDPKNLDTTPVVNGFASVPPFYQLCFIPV
Sequence of Cytochrome P450 2D6 (P10635 whole entry): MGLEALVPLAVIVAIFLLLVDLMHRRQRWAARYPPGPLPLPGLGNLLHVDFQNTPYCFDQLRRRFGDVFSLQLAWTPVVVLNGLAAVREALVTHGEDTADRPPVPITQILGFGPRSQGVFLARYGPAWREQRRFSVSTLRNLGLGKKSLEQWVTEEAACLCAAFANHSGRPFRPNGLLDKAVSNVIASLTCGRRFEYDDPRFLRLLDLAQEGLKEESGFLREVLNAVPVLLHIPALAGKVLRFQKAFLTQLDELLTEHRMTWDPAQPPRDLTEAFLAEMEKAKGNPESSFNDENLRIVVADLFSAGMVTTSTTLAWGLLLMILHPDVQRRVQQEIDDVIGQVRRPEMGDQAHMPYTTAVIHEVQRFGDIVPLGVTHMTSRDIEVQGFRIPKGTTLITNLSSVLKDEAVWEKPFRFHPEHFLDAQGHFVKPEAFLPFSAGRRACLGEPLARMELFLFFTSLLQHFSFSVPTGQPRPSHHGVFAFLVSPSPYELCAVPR
Sequence of Cytochrome P450 3A4 (P08684 whole entry): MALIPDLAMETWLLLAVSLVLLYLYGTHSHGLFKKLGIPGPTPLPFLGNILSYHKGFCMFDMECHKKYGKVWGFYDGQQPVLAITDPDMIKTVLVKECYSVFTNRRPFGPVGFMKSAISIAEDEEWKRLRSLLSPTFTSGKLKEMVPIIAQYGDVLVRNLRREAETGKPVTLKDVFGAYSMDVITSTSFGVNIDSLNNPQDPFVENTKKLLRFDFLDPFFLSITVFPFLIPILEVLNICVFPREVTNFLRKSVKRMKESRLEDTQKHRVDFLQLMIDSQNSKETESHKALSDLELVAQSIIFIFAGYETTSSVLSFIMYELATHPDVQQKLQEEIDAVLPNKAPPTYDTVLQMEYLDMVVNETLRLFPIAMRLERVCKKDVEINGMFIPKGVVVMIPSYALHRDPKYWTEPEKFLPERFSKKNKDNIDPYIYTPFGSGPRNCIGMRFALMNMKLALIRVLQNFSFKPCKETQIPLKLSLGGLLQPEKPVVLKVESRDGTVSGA

On to `CCC[C@H]1N(C(=O)c2cnccc2C(F)(F)F)CCC[C@@]1(Oc1ccc(C(F)(F)F)cc1)C(=O)N1CCC(Oc2ccc(CN)cn2)CC1`, for which the IC50 in assay [1] is 0.801 µM.
Regarding `CCC[C@H]1N(C(=O)c2cnccc2C(F)(F)F)CCC[C@@]1(Oc1ccc(C(F)(F)F)cc1)C(=O)N1CCC(Oc2cccnc2)CC1`, the IC50 in assay [1] was determined as 0.267 µM.
As to `CCC[C@H]1N(C(=O)c2cnccc2C(F)(F)F)CCC[C@@]1(Oc1ccc(C(F)(F)F)cc1)C(=O)N1CCC(Oc2ccc(C#N)cn2)CC1`, the IC50 in [1] came to 0.492 µM.
On the same count and under the same terms, the result for `CCC[C@H]1N(C(=O)c2cnccc2C(F)(F)F)CCC[C@@]1(Oc1ccc(C(F)(F)F)cc1)C(=O)N1CCC(Oc2cccc(C)n2)CC1` reads 5.03 µM.
As for `CCC[C@H]1N(C(=O)c2cnccc2C(F)(F)F)CCC[C@@]1(Oc1ccc(C(F)(F)F)cc1)C(=O)N1CCC(Oc2ccccc2Cl)CC1`, the IC50 in assay [1] was determined as 2.76 µM.
`CCC[C@H]1N(C(=O)c2cnccc2C(F)(F)F)CCC[C@@]1(Oc1ccc(C(F)(F)F)cc1)C(=O)N1CCC(Oc2cccc(Br)n2)CC1`: the concentration for half-maximal inhibition (IC50) in [1] turned out to be 1.86 µM.
Regarding `CCC[C@H]1N(C(=O)c2cnccc2C(F)(F)F)CCC[C@@]1(Oc1ccc(C(F)(F)F)cc1)C(=O)N1CCC(Cc2ccc(C)cc2)CC1`, the IC50 in assay [1] turned out to be 25.8 µM.
As for `CCC[C@H]1N(C(=O)c2cnccc2C(F)(F)F)CCC[C@@]1(Oc1ccc(C(F)(F)F)cc1)C(=O)N1CCC(Oc2ncccc2C#N)CC1`, the IC50 in assay [1] was 2.4 µM.
Still for that read-out and setting: the result for `CCC[C@H]1N(C(=O)c2cnccc2C(F)(F)F)CCC[C@@]1(Oc1ccc(C(F)(F)F)cc1)C(=O)N1CCC(Oc2cccc(OC)n2)CC1` reads 1.15 µM; that for `CCC[C@H]1N(C(=O)c2cnccc2C(F)(F)F)CCC[C@@]1(Oc1ccc(C(F)(F)F)cc1)C(=O)N1CCC(Sc2ccc(C)cc2)CC1`, 9.36 µM; that for `CCC[C@H]1N(C(=O)c2cnccc2C(F)(F)F)CCC[C@@]1(Oc1ccc(C(F)(F)F)cc1)C(=O)N1CCC(Oc2cc(CN)ccn2)CC1`, 4.03 µM.
In the case of `CCC[C@H]1N(C(=O)c2cnccc2C(F)(F)F)CCC[C@@]1(Oc1ccc(C(F)(F)F)cc1)C(=O)N1CCC(Cc2ccccc2)CC1`, the IC50 in [1] is 5.83 µM.
For the molecule `CCC[C@H]1N(C(=O)c2cnccc2C(F)(F)F)CCC[C@@]1(Oc1ccc(C(F)(F)F)cc1)C(=O)N1CCC(Sc2ccccc2)CC1`, in assay [1], the IC50 is 1.98 µM.
Regarding `CCC[C@H]1N(C(=O)c2cnccc2C(F)(F)F)CCC[C@@]1(Oc1ccc(C(F)(F)F)cc1)C(=O)N1CCC(Oc2ccncc2)CC1`, the IC50 in [1] came to 0.224 µM.
Turning to `CCC[C@H]1N(C(=O)c2cnccc2C(F)(F)F)CCC[C@@]1(Oc1ccc(C(F)(F)F)cc1)C(=O)N1CCC(Oc2ccncn2)CC1`, the IC50 in assay [1] came to 0.376 µM.
Take `CCC[C@H]1N(C(=O)c2cnccc2C(F)(F)F)CCC[C@@]1(Oc1ccc(C(F)(F)F)cc1)C(=O)N1CCC(Oc2cc(C(N)=O)ccn2)CC1`: the IC50 in assay [1] amounted to 8.72 µM.
Turning to `CCC[C@H]1N(C(=O)c2cnccc2C(F)(F)F)CCC[C@@]1(Oc1ccc(C(F)(F)F)cc1)C(=O)N1CCC(Oc2cccc(Cl)c2)CC1`, in assay [1], the half-inhibitory concentration (IC50) is 2.1 µM.
Regarding `CCC[C@H]1N(C(=O)c2cnccc2C(F)(F)F)CCC[C@@]1(Oc1ccc(C(F)(F)F)cc1)C(=O)N1CCC(Oc2ccc(C)cc2)CC1`, in assay [1], the half-inhibitory concentration (IC50) was 8.77 µM.
As for `CCC[C@H]1N(C(=O)c2cnccc2C(F)(F)F)CCC[C@@]1(Oc1ccc(C(F)(F)F)cc1)C(=O)N1CCC(Oc2ccc(C(N)=O)cn2)CC1`, the IC50 in [1] was 0.144 µM.
With `CCC[C@H]1N(C(=O)c2cnccc2C(F)(F)F)CCC[C@@]1(Oc1ccc(C(F)(F)F)cc1)C(=O)N1CCC(Oc2ncccc2CN)CC1`, in [1], the IC50 amounted to 7.74 µM.
Still for that read-out and setting: next, `CCC[C@H]1N(C(=O)c2cnccc2C(F)(F)F)CCC[C@@]1(Oc1ccc(C(F)(F)F)cc1)C(=O)N1CCC(Oc2ccc(Cl)cc2)CC1`: 4.11 µM.
Consider `CCC[C@H]1N(C(=O)c2cnccc2C(F)(F)F)CCC[C@@]1(Oc1ccc(C(F)(F)F)cc1)C(=O)N1CCC(Oc2ccccc2)CC1`, for which, in assay [1], the IC50 stood at 2.4 µM.
`CCC[C@H]1N(C(=O)c2cnccc2C(F)(F)F)CCC[C@@]1(Oc1ccc(C(F)(F)F)cc1)C(=O)N1CCC(Oc2ncccn2)CC1`: the IC50 in assay [1] stood at 0.334 µM.
As to `CCC[C@H]1N(C(=O)c2cnccc2C(F)(F)F)CCC[C@@]1(Oc1ccc(C(F)(F)F)cc1)C(=O)N1CCC(Oc2cccc(Cl)n2)CC1`, the IC50 in [1] stood at 2.36 µM.
The same measure, in the same setting: next, `CCC[C@H]1N(C(=O)c2cnccc2C(F)(F)F)CCC[C@@]1(Oc1ccc(C(F)(F)F)cc1)C(=O)N1CCC(Oc2cccc(C(N)=O)n2)CC1`: 0.111 µM; `CCC[C@H]1N(C(=O)c2cnccc2C(F)(F)F)CCC[C@@]1(Oc1ccc(C(F)(F)F)cc1)C(=O)N1CCC(Oc2cccc(CN)n2)CC1`: 0.173 µM.
Take `CCC[C@H]1N(C(=O)c2cnccc2C(F)(F)F)CCC[C@@]1(Oc1ccc(C(F)(F)F)cc1)C(=O)N1CCC(Oc2cc(C#N)ccn2)CC1`: the half-maximal inhibitory concentration (IC50) in assay [1] was 0.293 µM.
As for `CCC[C@H]1N(C(=O)c2cnccc2C(F)(F)F)CCC[C@@]1(Oc1ccc(C(F)(F)F)cc1)C(=O)N1CCC(Oc2cccc(C#N)n2)CC1`, the IC50 in assay [1] was 0.686 µM.
With `CCC[C@H]1N(C(=O)c2cnccc2C(F)(F)F)CCC[C@@]1(Oc1ccc(C(F)(F)F)cc1)C(=O)N1CCC(Oc2ccccn2)CC1`, the IC50 in [1] came out at 0.15 µM.
With `CCC[C@H]1N(C(=O)c2cnccc2C(F)(F)F)CCC[C@@]1(Oc1ccc(C(F)(F)F)cc1)C(=O)N1CCC(Oc2ccccc2C)CC1`, the IC50 in assay [1] stood at 6.6 µM.
For `CCC[C@H]1N(C(=O)c2cnccc2C(F)(F)F)CCC[C@@]1(Oc1ccc(C(F)(F)F)cc1)C(=O)N1CCC(Oc2ncccc2C(N)=O)CC1`, in assay [1], the IC50 was 4.28 µM.
Regarding `CCC[C@H]1N(C(=O)c2cnccc2C(F)(F)F)CCC[C@@]1(Oc1ccc(C(F)(F)F)cc1)C(=O)N1CCC(Oc2ccccc2C#N)CC1`, the IC50 in assay [1] stood at 8.71 µM.
Take `CCC[C@H]1N(C(=O)c2cnccc2C(F)(F)F)CCC[C@@]1(Oc1ccc(C(F)(F)F)cc1)C(=O)N1CCC(Oc2cccc(C(=O)OC)n2)CC1`: in assay [1], the IC50 amounted to 0.392 µM.
`CCC[C@H]1N(C(=O)c2cnccc2C(F)(F)F)CCC[C@@]1(Oc1ccc(C(F)(F)F)cc1)C(=O)N1CCC(Oc2cccc(C(=O)O)n2)CC1`: the IC50 was more than 100 µM in the assay on SK-UT-1; more than 50 µM against Cytochrome P450 3A4; 8.65 µM in assay [2]; 0.042 µM in assay [1]; 4.65 µM in [3]; more than 50 µM against Cytochrome P450 2D6. Also, the values for the IC50 (against Cytochrome P450 2C9; in [4]) were more than 50 µM and more than 100 µM, respectively.
With `CCC[C@H]1N(C(=O)c2cnccc2C(F)(F)F)CCC[C@@]1(Oc1ccc(C(F)(F)F)cc1)C(=O)N1CCC(Oc2cnccn2)CC1`, the IC50 in [1] amounted to 1.06 µM.
Consider `O=C(c1cnccc1C(F)(F)F)N1CCCC(Oc2ccc(C(F)(F)F)cc2)(C(=O)N2CCN(c3ccccn3)CC2)C1` (centres undefined), for which the Kd in assay [5] turned out to be 0.5 µM.
With `CCC[C@H]1N(C(=O)c2cnccc2C(F)(F)F)CCC[C@@]1(Oc1ccc(C(F)(F)F)cc1)C(=O)N1CCC(Oc2cccc(C(F)(F)F)n2)CC1`, the half-inhibitory concentration (IC50) in assay [1] stood at 2.04 µM.
In the case of `CCC[C@H]1N(C(=O)c2cnccc2C(F)(F)F)CCC[C@@]1(Oc1ccc(C(F)(F)F)cc1)C(=O)N1CCC(Oc2cccc(C(=O)NC)n2)CC1`, in assay [1], the IC50 came out at 0.114 µM.
With `CCC[C@H]1N(C(=O)c2cnccc2C(F)(F)F)CCC[C@@]1(Oc1ccc(C(F)(F)F)cc1)C(=O)N1CCC(Oc2cccc(C#N)c2)CC1`, the IC50 in assay [1] stood at 0.399 µM.
As to `CCC[C@H]1N(C(=O)c2cnccc2C(F)(F)F)CCC[C@@]1(Oc1ccc(C(F)(F)F)cc1)C(=O)N1CCC(Oc2cccc(C)c2)CC1`, the concentration for half-maximal inhibition (IC50) in assay [1] was 0.668 µM.
Same read-out and setting: the result for `CCC[C@H]1N(C(=O)c2cnccc2C(F)(F)F)CCC[C@@]1(Oc1ccc(C(F)(F)F)cc1)C(=O)N1CCC(Oc2ccc(C#N)cc2)CC1` reads 1.92 µM; that for `CCC[C@H]1N(C(=O)c2cnccc2C(F)(F)F)CCC[C@@]1(Oc1ccc(C(F)(F)F)cc1)C(=O)N1CCC(Oc2cncnc2)CC1`, 0.525 µM.
